For one experiment, the system named is Escherichia coli. As to the kind of experiment: Antibacterial activity against Escherichia coli ATCC 25922 assessed as reduction in bacterial growth after 24 hrs by CLSI protocol based analysis. Type of experiment: functional.
The next experiment deals with Trichophyton rubrum. In words: Antifungal activity against Trichophyton rubrum NBRC 9185 assessed as inhibition of fungal growth incubated for 96 hrs by CLSI protocol based analysis. Format: functional.
Experiment [1] relates to Staphylococcus aureus. As to the kind of experiment: Antibacterial activity against methicillin-resistant Staphylococcus aureus ATCC 43300 assessed as reduction in bacterial growth incubated for 24 hrs by CLSI protocol based analysis. Type of experiment: functional.
Experiment [2] has as its system SH-SY5Y. As to the kind of experiment: Neuroprotective activity against MPP-induced cytotoxicity in human SH-SY5Y cells assessed as decrease in cell death at 10 umol/L preincubated with compound for 24 hrs followed by MPP addition and measured after 24 hrs by MTT assay. Type of experiment: functional, cell-based. The settings on record: dose 10.0 µmol/L, time 48.0 hrs.

The next experiment has as its system Candida albicans. In words: Antifungal activity against Candida albicans ATCC 10231 assessed as reduction in fungal growth incubated for 24 hrs by CLSI protocol based analysis. Type of experiment: functional.
Experiment [3] concerns Mycobacterium tuberculosis. As to the kind of experiment: Antitubercular activity against wild type Mycobacterium tuberculosis mc2 6230 assessed as bacterial growth inhibition incubated for 5 days by resazurin microtiter assay. Type of experiment: functional. The settings on record: mc2 6230, 120 h, time 5 day. On the technique in general: Alamar Blue is a resazurin reagent that responds to reducing activity.

In another experiment the test system is Enterococcus faecalis. In words: Antibacterial activity against Enterococcus faecalis ATCC 19433 assessed as reduction in bacterial growth after 24 hrs by CLSI protocol based analysis. Type of experiment: functional.
For the next experiment, the system named is Enterococcus faecium. In words: Antibacterial activity against Enterococcus faecium ATCC 19434 assessed as reduction in bacterial growth after 24 hrs by CLSI protocol based analysis. Format: functional.
Experiment [4] relates to SH-SY5Y. In words: Neuroprotective activity against MPP-induced cytotoxicity in human SH-SY5Y cells assessed as increase in Bcl-xL mRNA expression level at 10 umol/L by RT-qPCR analysis. Format: functional, cell-based. The settings on record: dose 10.0 µmol/L. (In general: In qPCR the cycle at which signal appears reflects the starting amount.)
Experiment [5] has as its system SH-SY5Y. As to the kind of experiment: Neuroprotective activity against MPP-induced cytotoxicity in human SH-SY5Y cells assessed as decrease in Bak mRNA expression level at 10 umol/L by RT-qPCR analysis. Format: functional, cell-based. Particulars: dose 10.0 µmol/L.
The test system of a further experiment is Klebsiella pneumoniae. In words: Antibacterial activity against Klebsiella pneumoniae ATCC 10031 assessed as reduction in bacterial growth after 24 hrs by CLSI protocol based analysis. Type of experiment: functional.
In experiment [6] the test system is Trichophyton mentagrophytes. In words: Antifungal activity against Trichophyton mentagrophytes IFM 40996 assessed as inhibition of fungal growth incubated for 96 hrs by CLSI protocol based analysis. Format: functional.
In the next experiment the test system is Aspergillus fumigatus. In words: Antifungal activity against Aspergillus fumigatus HIC 6094 assessed as inhibition of fungal growth incubated for 48 hrs by CLSI protocol based analysis. Type of experiment: functional.
Experiment [7] deals with Staphylococcus aureus. As to the kind of experiment: Antibacterial activity against Staphylococcus aureus ATCC 25923 assessed as reduction in bacterial growth incubated for 24 hrs by CLSI protocol based analysis. Format: functional.
For a further experiment, the system named is Salmonella enterica. As to the kind of experiment: Antibacterial activity against Salmonella enterica ATCC 14028 assessed as reduction in bacterial growth after 24 hrs by CLSI protocol based analysis. Type of experiment: functional.

The source made the active and inactive calls. The calls are words filed in the database; no cut-off is given here.

In general, MIC refers to the lowest concentration found to suppress growth. As for `CCC/C=C/C=C/C=C/[C@@H](O)C[C@]1(O)O[C@H](C[C@H](O)[C@@H](O)[C@H](O)[C@H]2OC(=O)[C@@H](C)[C@@H]2O)[C@@H](O)[C@H](O)[C@@H]1O`, the minimum inhibitory concentration (MIC) (with Escherichia coli; with Trichophyton rubrum; in the experiment with Staphylococcus aureus [1]; in the experiment on Candida albicans; in [3]; in the experiment on Enterococcus faecalis) was over 128 µg/mL each time. Moreover, the minimal inhibitory concentration (MIC) (in the experiment with Enterococcus faecium; with Klebsiella pneumoniae; in experiment [6]; in the experiment on Aspergillus fumigatus; with Staphylococcus aureus [7]; in the experiment with Salmonella enterica) was over 128 µg/mL throughout. Moreover, the outcome in the experiment with SH-SY5Y [2], with SH-SY5Y [4] and in the experiment with SH-SY5Y [5] was Active.

These data come from ChEMBL document CHEMBL5344449, “Retinestatin, a Polyol Polyketide from a Termite Nest-Derived Streptomyces sp” (2024).
